# Source: patent publication EP0316212B1 (priority 1987, dated 1989)
# Tests used:
# [1] = target: reverse transcriptase du HIV1 (Human immunodeficiency virus type 1 group M subtype B, UniProt P04585); experiment: Reverse transcriptase activity of HIV1 incubated with NP derivatives, tested immediately; type: biochemical; conditions: témoin virus 11924
# Protocol: (§1) La technique de culture et de titrage de la reverse-transcriptase du HIV est rappelée ci-après : Des lymphocytes humains, préalablement activés par la PHA (phytohémagglutinine) sont incubés dans un milieu nutritif (RPMI 1640 + sérum de veau foetal + antibiotiques + β-mercaptoéthanol 10⁻⁵M + 2»g/ml polybrene + sérum anti-interféron 1/2000 + IL2 10%). Après centrifugation, le culot cellulaire est mis en présence du HIV1 (10.000 cpm/10⁶ cellules) pendant 1 heure à 37°. Après lavage et centrifugation, les cellules sont resuspendues dans du milieu nutritif. Les surnageants de culture cellulaire sont suivis pendant plusieurs jours pour leur activité reverse transcriptase. Ils sont centrifugés 7 minutes à 95000 tours et le culot est lysé par du Triton® 0,1% (produit Touzart et Matignon). Un mélange réactionnel est ajouté (Tris, DTT (dithiothreitol), MgCl₂, KCl, PolyA, Oligo dT, ³HTTP, H₂O) et après 1 heure d'incubation à 37°C, la réaction est arrêtée avec du pyrophosphate de sodium et de l'acide nucléique de levure est ajouté pour aider la précipitation. De l'acide trichloracétique (TCA) est ajouté et la solution est laissée 15 minutes à 4°C. Après filtration sous vide avec des filtres millipores 0.45 »m et plusieurs lavages avec du TCA (0.5%), on procède au rinçage à l'éthanol, au sèchage en étuve 37° et enfin au comptage.
# Le HIV1 est incubé 1 heure à 37° en présence d'AcN (D23, 621, N5-12), d'anticorps anti-NP (TNP11) ou en présence des dérivés NP (DNP-glycine et DNP-lysine). L'activité reverse transcriptase du HIV1 est testée immédiatement (cas des dérivés DNP-glycine et DNP-lysine). Alternativement, des lymphocytes humains sont infectés par le HIV1 préincubé avec les produits à tester, et la culture cellulaire est observée pendant 3 semaines par titrage de la reverse transcriptase. Durant cette période les cultures des lymphocytes humains ne contiennent pas d'anticorps ni d'antigène.
# [2] = tested on: HIV1; experiment: HIV1 infection of human lymphocytes preincubated with antibodies or NP derivatives, reverse transcriptase in supernatants; type: cell-based; conditions: for activité reverse transcriptase (surnageants de culture): dérivés NP, concentration not given
# Protocol: as §1
# Les lymphocytes humains, préalablement activés par la PHA, sont incubés en présence des AcN, des anticorps anti-NP et des dérivés NP (DNP-glycine, DNP-lysine) pendant une nuit à 37°C. Le lendemain, le culot cellulaire est mis en présence du HIV1 pendant 1 heure à 37°C au bain-marie et les cellules sont resuspendues dans du milieu nutritif en présence des produits à tester. Les surnageants de culture sont testés pour l'activité reverse transcriptase pendant 3 semaines.
structure (smiles),measurement,setting,value
"N[C@@H](CCCCNc1ccc([N+](=O)[O-])cc1[N+](=O)[O-])C(=O)O [DNP-lysine, DNP-Lysine]",Activité reverse transcriptase,[1]; 10^-3M,4652
same,Activité reverse transcriptase,[1]; 10^-6M,3932
same,Activité reverse transcriptase,[1]; 10^-7M,7240
same,Activité reverse transcriptase,[1]; 10^-9M,9262
same,activité reverse transcriptase (surnageants de culture),"[2]; 3 jours après l'infection, témoin virus 562",936
same,activité reverse transcriptase (surnageants de culture),"[2]; 6 jours après l'infection, témoin virus 1274",958
same,activité reverse transcriptase (surnageants de culture),"[2]; 10 jours après l'infection, témoin virus 94474",1102
same,activité reverse transcriptase (surnageants de culture),"[2]; 13 jours après l'infection, témoin virus 63944",1466
same,activité reverse transcriptase (surnageants de culture),"[2]; 18 jours après l'infection, témoin virus 73368",958
same,activité reverse transcriptase (surnageants de culture),"[2]; 20 jours après l'infection, témoin virus 26840",1268
same,activité reverse transcriptase / infectivité virale par rapport au témoin virus (result in words),[2]; lymphocytes incubés avec les produits,peuvent conduire à une inhibition totale de l'infectivité virale
